Laboratory results: US6608061B2, “Bisaryl compound and medicament for cancer treatment comprising the same” (Kyoma Hakko Kogyo Co., Ltd., priority 1997, dated 2003)
pIC50: −log10 of the molar value. Like-named read-outs stand apart in the source and are kept apart here.

Assays:
HeLa S3 cells = test: Test for growth inhibition of HeLa S3 cells; format: cell-based; conditions: HeLa S3 cells, 72 hours with test compound, Cell Proliferation Kit II, read-out: Cell growth inhibition (IC50)
Method: Test for Growth Inhibition of Hela S3 Cells
HeLa S3 cells prepared at 1×10^4 cells/ml in MEM culture medium containing 10% fetal bovine serum and 2 mM glutamine were added to each well of a 96-well microtiter plate (0.1 ml for each well). The cells were cultured at 37° C. in a CO2 incubator for 24 hours, and then 0.05 ml of test compound appropriately diluted with the above medium was added to each well, and then the mixture was cultured at 37° C. in a CO2 incubator for 72 hours. After the culture supernatant was removed, each well was washed with 0.1 ml of PBS buffer twice, and 0.1 ml of the aforementioned medium was added to each well again.
Cell Proliferation Kit II (Boehringer Mennheim) was used for measurement of cell number in each well. After a coloring reaction reagent was added, the plate was warmed to 37° C. in a CO2 incubator for 3 hours. Then, absorbances at 490 nm and 655 nm were measured by a microplate reader, and a value (difference of absorbance) was calculated for each well by subtracting the absorbance at […] from the absorbance at 490 nm. By comparing the differences of absorbance for cells without treatment and cells treated with a test compound at a known concentration, a concentration of test compound which inhibited the cell growth by 50% was calculated, and the value obtained was determined as IC50. The values of RNR inhibitory activity obtained in Example 8, and the values of cell growth inhibitory activity obtained in Example 9 are shown in the following tables (the compound numbers used in the tables correspond to the compound numbers shown in the aforementioned tables).

[1] = molecular target: T1, human RNR (purified R1 and R2 subunits) (Homo sapiens, UniProt P23921+P31350); test: In vitro measurement of human RNR inhibitory activity (conversion of CDP to dCDP, HPLC); format: biochemical; conditions: 100 μM CDP, 37° C., 30 minutes, read-out: RNR Inhibition (IC50)
T1 construct: made in house; host or cells: Escherichia coli BL21(λDE3)pLysS, plasmids pETR1 and pETR2 (pET3a backbone)
T1 sequence (P23921 1-792): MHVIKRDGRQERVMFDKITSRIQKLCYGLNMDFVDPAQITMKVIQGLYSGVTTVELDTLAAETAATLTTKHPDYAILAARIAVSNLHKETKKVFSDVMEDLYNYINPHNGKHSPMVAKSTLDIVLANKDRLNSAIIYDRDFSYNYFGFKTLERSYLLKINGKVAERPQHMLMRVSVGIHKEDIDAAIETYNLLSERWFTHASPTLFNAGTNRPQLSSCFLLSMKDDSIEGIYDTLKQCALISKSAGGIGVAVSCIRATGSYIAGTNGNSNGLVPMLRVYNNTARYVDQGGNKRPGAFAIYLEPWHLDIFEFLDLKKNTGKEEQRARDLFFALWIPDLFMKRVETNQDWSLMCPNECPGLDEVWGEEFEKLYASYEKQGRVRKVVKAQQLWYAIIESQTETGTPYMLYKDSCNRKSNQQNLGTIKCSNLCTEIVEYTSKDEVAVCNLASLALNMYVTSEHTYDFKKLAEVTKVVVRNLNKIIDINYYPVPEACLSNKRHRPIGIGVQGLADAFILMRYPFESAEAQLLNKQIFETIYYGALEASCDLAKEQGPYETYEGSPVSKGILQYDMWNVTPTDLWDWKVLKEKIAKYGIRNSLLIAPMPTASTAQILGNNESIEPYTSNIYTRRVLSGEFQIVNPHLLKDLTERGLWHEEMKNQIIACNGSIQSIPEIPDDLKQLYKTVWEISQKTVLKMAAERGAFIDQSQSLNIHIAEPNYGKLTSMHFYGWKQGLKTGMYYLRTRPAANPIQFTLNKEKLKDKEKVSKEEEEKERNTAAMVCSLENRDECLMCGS
T1 sequence (P31350 1-389): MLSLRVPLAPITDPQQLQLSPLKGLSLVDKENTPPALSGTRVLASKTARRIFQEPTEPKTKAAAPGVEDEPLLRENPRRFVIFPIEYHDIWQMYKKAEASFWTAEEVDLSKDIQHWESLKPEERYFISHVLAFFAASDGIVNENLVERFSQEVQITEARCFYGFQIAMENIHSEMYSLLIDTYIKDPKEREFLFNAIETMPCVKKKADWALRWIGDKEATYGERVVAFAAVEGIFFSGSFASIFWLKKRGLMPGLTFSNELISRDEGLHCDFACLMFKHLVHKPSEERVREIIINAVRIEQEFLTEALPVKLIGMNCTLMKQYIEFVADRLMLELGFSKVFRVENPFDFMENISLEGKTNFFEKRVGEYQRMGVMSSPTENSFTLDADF

Row | SMILES | pIC50 (HeLa S3 cells; Homo sapiens, HeLa S3, 72 h) | pIC50 [1] | pIC50 (HeLa S3 cells)
1 | Oc1ccc(SCc2cccc(CSc3ccc(O)cc3)n2)cc1 [Compound 1] | 5.29 | 5.37 | –
2 | O=C1N(CS(=O)(=O)CCSc2ccc(O)cc2)CCCN1CS(=O)(=O)CCSc1ccc(O)cc1 [Compound 7] | < 4.00 | 5.32 | –
3 | Oc1ccc(SCCNCCSc2ccc(O)cc2)cc1 [Compound 45] | 5.25 | 5.44 | –
4 | N=C(N)N(CCSc1ccc(O)cc1)CCSc1ccc(O)cc1 [Compound 49] | 4.79 | 5.26 | –
5 | O=C(CCSc1ccc(O)cc1)N(CCSc1ccc(O)cc1)CCSc1ccc(O)cc1 [Compound 52] | 5.19 | 5.36 | –
6 | CC(=O)N(CCSc1ccc(O)cc1)CCSc1ccc(O)cc1 [Compound 54] | 5.33 | 6.32 | –
7 | O=C(N(CCSc1ccc(O)cc1)CCSc1ccc(O)cc1)N1CCCc2ccccc21 [Compound 57] | 4.84 | 6.14 | –
8 | CC1CCc2ccccc2N1C(=O)N(CCSc1ccc(O)cc1)CCSc1ccc(O)cc1 (stereo not drawn) [Compound 58] | 4.73 | 5.32 | –
9 | NCCN(CCSc1ccc(O)cc1)CCSc1ccc(O)cc1 [Compound 59] | 5.24 | 5.24 | –
10 | CC(=O)NCCN(CCSc1ccc(O)cc1)CCSc1ccc(O)cc1 [Compound 83] | 5.29 | 5.53 | –
11 | Oc1ccc(SCCN(CCSc2ccc(O)cc2)Cc2cccs2)cc1 [Compound 89] | 5.33 | 5.84 | –
12 | Oc1ccc(SCCN(CCSc2ccc(O)cc2)Cc2ccco2)cc1 [Compound 90] | 5.20 | 5.69 | –
13 | Oc1ccc(SCCN(CCSc2ccc(O)cc2)Cc2cccc(O)c2)cc1 [Compound 93] | 5.04 | 6.20 | –
14 | Oc1ccc(SCCN(CCSc2ccc(O)cc2)Cc2ccccc2)cc1 [Compound 98] | 4.82 | 5.47 | –
15 | Oc1ccc(SCCN(CCSc2ccc(O)cc2)Cc2cccnc2)cc1 [Compound 99] | 5.24 | 5.55 | –
16 | Oc1ccc(SCCN(CCSc2ccc(O)cc2)Cc2ccc3ccccc3n2)cc1 [Compound 101] | 4.89 | 5.30 | –
17 | Oc1ccc(SCCN(CCSc2ccc(O)cc2)Cc2ccccc2F)cc1 [Compound 105] | 5.04 | 5.40 | –

Row | SMILES | pIC50 (HeLa S3 cells; Homo sapiens, HeLa S3, 72 h) | pIC50 [1] | pIC50 (HeLa S3 cells)
18 | Oc1ccc(SCCN(CCSc2ccc(O)cc2)Cc2ccc(F)cc2)cc1 [Compound 106] | 5.17 | 5.33 | –
19 | O=C(CCN(CCSc1ccc(O)cc1)CCSc1ccc(O)cc1)N1CCOCC1 [Compound 107] | 4.60 | 5.38 | –
20 | CCN(CC)CCN(CCSc1ccc(O)cc1)CCSc1ccc(O)cc1 [Compound 109] | 4.41 | 5.63 | –
21 | Oc1ccc(SCCN(CCSc2ccc(O)cc2)CCN2CCCCC2)cc1 [Compound 111] | 4.94 | 5.73 | –
22 | O=C(c1ccccn1)N(CCSc1ccc(O)cc1)CCSc1ccc(O)cc1 [Compound 115] | 5.21 | 5.38 | –
23 | CS(=O)(=O)N(CCSc1ccc(O)cc1)CCSc1ccc(O)cc1 [Compound 118] | 5.11 | 5.16 | –
24 | O=C(N1CCCCC1)N(CCSc1ccc(O)cc1)CCSc1ccc(O)cc1 [Compound 125] | 5.34 | 6.04 | –
25 | Oc1ccc(SSc2ccc(O)cc2)cc1 [Compound 131] | 3.89 | 5.18 | –
26 | Oc1ccc(SCSc2ccc(O)cc2)cc1 [Compound 132] | 4.34 | 5.46 | –
27 | Oc1ccc(SCCSc2ccc(O)cc2)cc1 [Compound 133] | 4.84 | 5.64 | –
28 | Oc1ccc(SCCCCSc2ccc(O)cc2)cc1 [Compound 135] | 5.22 | 6.37 | –
29 | Oc1ccc(SCCCCCSc2ccc(O)cc2)cc1 [Compound 136] | 5.04 | 6.16 | –
30 | Oc1ccc(SCCCCCCSc2ccc(O)cc2)cc1 [Compound 137] | 5.26 | 6.06 | –
31 | Oc1ccc(SCCCCCCCSc2ccc(O)cc2)cc1 [Compound 138] | 4.74 | 5.64 | –
32 | CC(CSc1ccc(O)cc1)Sc1ccc(O)cc1 (stereo not drawn) [Compound 152] | 4.75 | 5.29 | –
33 | NC(=O)CN(CCSc1ccc(O)cc1)CCSc1ccc(O)cc1 [Compound 224] | – | – | 6.40
34 | NC(=O)CN(CCSc1ccc(O)cc1)CCSc1ccc(O)cc1 [Compound 225] | – | – | 6.26

Second part, the compound after the results:

Row | pIC50 (HeLa S3 cells; Homo sapiens, HeLa S3, 72 h) | pIC50 [1] | pIC50 (HeLa S3 cells) | SMILES
35 | 5.77 | 5.98 | – | O=CN(CCSc1ccc(O)cc1)CCSc1ccc(O)cc1 [Compound 53]
36 | 5.40 | 5.91 | – | CCN(CCSc1ccc(O)cc1)CCSc1ccc(O)cc1 [Compound 71]
37 | 5.79 | 6.22 | – | C#CCN(CCSc1ccc(O)cc1)CCSc1ccc(O)cc1 [Compound 73]
38 | 5.70 | 6.09 | – | C=CCN(CCSc1ccc(O)cc1)CCSc1ccc(O)cc1 [Compound 74]
39 | 5.45 | 5.78 | – | Oc1ccc(SCCN(CCSc2ccc(O)cc2)CC2CC2)cc1 [Compound 75]
40 | 5.84 | 6.13 | – | CCN(CC)C(=O)CCN(CCSc1ccc(O)cc1)CCSc1ccc(O)cc1 [Compound 80]
41 | 5.91 | 6.54 | – | CC(=O)CN(CCSc1ccc(O)cc1)CCSc1ccc(O)cc1 [Compound 81]
42 | 5.89 | 5.85 | – | NC(=O)NCCN(CCSc1ccc(O)cc1)CCSc1ccc(O)cc1 [Compound 82]
43 | 5.42 | 5.50 | – | O=C1CCC(=O)N1CCN(CCSc1ccc(O)cc1)CCSc1ccc(O)cc1 [Compound 86]
44 | 5.59 | 6.00 | – | CSCCN(CCSc1ccc(O)cc1)CCSc1ccc(O)cc1 [Compound 87]
45 | 5.49 | 5.75 | – | Oc1ccc(SCCN(CCSc2ccc(O)cc2)CC2OCCO2)cc1 [Compound 88]
46 | 5.67 | 6.05 | – | Oc1ccc(SCCN(CCSc2ccc(O)cc2)Cc2ccccc2O)cc1 [Compound 92]
47 | 5.45 | 6.06 | – | OCCCN(CCSc1ccc(O)cc1)CCSc1ccc(O)cc1 [Compound 95]
48 | 5.76 | 5.68 | – | COCCN(CCSc1ccc(O)cc1)CCSc1ccc(O)cc1 [Compound 104]
49 | 5.58 | 6.19 | – | O=C(CCN(CCSc1ccc(O)cc1)CCSc1ccc(O)cc1)N1CCCCC1 [Compound 108]
50 | 5.42 | 5.32 | – | CCC(=O)N(CCSc1ccc(O)cc1)CCSc1ccc(O)cc1 [Compound 113]
51 | 5.56 | 5.46 | – | O=C(c1ccccc1)N(CCSc1ccc(O)cc1)CCSc1ccc(O)cc1 [Compound 114]
52 | 5.52 | 5.38 | – | O=C(c1cccnc1)N(CCSc1ccc(O)cc1)CCSc1ccc(O)cc1 [Compound 116]
53 | 5.57 | 5.77 | – | O=C(c1ccncc1)N(CCSc1ccc(O)cc1)CCSc1ccc(O)cc1 [Compound 117]
54 | 5.43 | 7.05 | – | O=C(N1CCOCC1)N(CCSc1ccc(O)cc1)CCSc1ccc(O)cc1 [Compound 124]
55 | 5.69 | 6.17 | – | Oc1ccc(SCCCSc2ccc(O)cc2)cc1 [Compound 134]
